The supplement of paper PMC10307832

Columns and labels:
Assay in all cases: relative viability (nuclei count vs DMSO), 5 days (fraction); higher = more cells survive
[1] = compound: Cn1cc(-c2cnn3c(N)c(Br)c([C@@H]4CCCNC4)nc23)cn1 + C[C@]1(O)C[C@@H](c2nc(-c3ccc4ccc(-c5ccccc5)nc4c3)c3c(N)nccn32)C1 [Linsitinib] (partner 1 µM)
Summary of the method: (§1)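 Relative viability was taken as the ratio of nuclei in treated wells to nuclei in vehicle wells. Lung cancer cell lines in 1536-well plates received compounds by pin tool one day after seeding, either one drug alone or a fixed anchor-drug dose plus five library-drug doses (not always all listed) in √10 steps. Nuclei were counted on 4× images after 5 days of treatment, and values are medians of duplicate plates.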

[2] = compound: Cn1cc(-c2cnn3c(N)c(Br)c([C@@H]4CCCNC4)nc23)cn1 + CC1(C)CCC(c2ccc(Cl)cc2)=C(CN2CCN(c3ccc(C(=O)NS(=O)(=O)c4ccc(N[C@H](CCN5CCOCC5)CSc5ccccc5)c(S(=O)(=O)C(F)(F)F)c4)cc3)CC2)C1 [Navitoclax] (partner 0.5 µM)
Summary of the method: as §1

[3] = compound: Cn1cc(-c2cnn3c(N)c(Br)c([C@@H]4CCCNC4)nc23)cn1 + COc1cc2c(Oc3ccc(NC(=O)C4(C(=O)Nc5ccc(F)cc5)CC4)cc3F)ccnc2cc1OCCCN1CCOCC1 [Foretinib] (partner 0.25 µM)
Summary of the method: as §1

[4] = compound: Cn1cc(-c2cnn3c(N)c(Br)c([C@@H]4CCCNC4)nc23)cn1 + CCNC(=O)c1noc(-c2cc(C(C)C)c(O)cc2O)c1-c1ccc(CN2CCOCC2)cc1 [Luminespib] (partner 0.01 µM)
Summary of the method: as §1

Cell Line | relative viability ([1]; first compound 0.05 µM) | relative viability ([1]; first compound 0.1581 µM) | relative viability ([1]; first compound 0.5 µM) | relative viability ([1]; first compound 1.581 µM) | relative viability ([1]; first compound 5 µM) | relative viability ([2]; first compound 0.05 µM) | relative viability ([2]; first compound 0.1581 µM) | relative viability ([2]; first compound 0.5 µM) | relative viability ([2]; first compound 1.581 µM) | relative viability ([2]; first compound 5 µM) | relative viability ([3]; first compound 0.05 µM) | relative viability ([3]; first compound 0.1581 µM) | relative viability ([3]; first compound 0.5 µM) | relative viability ([3]; first compound 1.581 µM) | relative viability ([3]; first compound 5 µM) | relative viability ([4]; first compound 0.05 µM) | relative viability ([4]; first compound 0.1581 µM) | relative viability ([4]; first compound 0.5 µM) | relative viability ([4]; first compound 1.581 µM) | relative viability ([4]; first compound 5 µM)
201T | 1.08 | 1.05 | 1.12 | 0.97 | 0.936 | 1.14 | 1.18 | 1.16 | 1.32 | 1.22 | 0.999 | 0.952 | 1.26 | 0.554 | 0.265 | 1.05 | 1.17 | 1.06 | 0.988 | 0.83
A549 | 0.653 | 0.664 | 0.48 | 0.588 | 0.43 | 1.25 | 1.3 | 1.14 | 0.916 | 0.917 | 1.03 | 1.2 | 0.93 | 0.664 | 0.711 | – | – | – | – | –
A-427 | 1.12 | 1.15 | 1.06 | 1.06 | 1 | 1.06 | 1 | 0.9 | 0.953 | 0.733 | 1.05 | 1.11 | 1.01 | 1.09 | 0.712 | 1.36 | 0.923 | 0.889 | 0.571 | 0.403
ABC-1 | 0.801 | 1.01 | 0.781 | 0.716 | 0.288 | – | – | – | – | – | 0.951 | 1.07 | 1.02 | 0.872 | 0.4 | 0.439 | 0.338 | 0.484 | 0.361 | 0.265
BEN | 1.04 | 0.977 | 0.918 | 0.686 | 0.738 | 0.0592 | 0.289 | 0.0589 | 0.0666 | 0.0768 | 0.689 | 0.535 | 0.563 | 0.763 | 0.514 | 0.305 | 0.463 | 0.311 | 0.332 | 0.337
CAL-12T | 0.786 | 0.929 | 0.809 | 0.616 | 0.262 | 1.36 | 1.24 | 1.12 | 0.755 | 0.159 | 1.17 | 1.08 | 0.965 | 0.789 | 0.228 | 0.517 | 0.173 | 0.252 | 0.289 | 0.204
COR-L23 | 0.835 | 1.16 | 1.05 | 0.688 | 0.363 | 0.854 | 1.13 | 0.973 | 0.965 | 0.346 | 1.07 | 1.13 | 1.08 | 0.907 | 0.439 | 0.775 | 0.745 | 0.366 | 0.24 | 0.119
COR-L 105 | 0.898 | 0.719 | 0.89 | 0.878 | 0.645 | 0.742 | 0.693 | 0.649 | 0.713 | 0.454 | 0.83 | 0.995 | 0.994 | 0.782 | 1.46 | 0.712 | 0.754 | 0.696 | 0.581 | 0.484
